Source: patent US20130150376A1, “Novel Sultam Compounds” (PFIZER INC., priority 2010, published 2013)
Counter-ions that a name gives are not always drawn. Like-named read-outs stand apart in the source and are kept apart here.

Target: T1, BACE1 enzyme (soluble, truncated BACE enzyme, BACE1deltaTM96His) (Homo sapiens, UniProt P56817)
T1 construct: soluble, truncated BACE enzyme (BACE1deltaTM96His); His; made in house
Experiment: BACE1 Fluorescent Polarization (FP) Assay
Assay type: biochemical
Settings: geometric mean of 2-4 IC50 determinations unless footnoted (^2: 5-6 determinations; ^4: single determination)
Text: BACE1 Fluorescent Polarization (FP) Assay
The fluorescently tagged synthetic substrate, Biotin-GLTNIKTEEISEISŶEVEFR-C[oregon green]KK-OH can be efficiently cleaved by the beta-secretase enzyme and is therefore useful to assay beta-secretase activity in the presence or absence of inhibitory compounds. The his tagged BACE1 enzyme was affinity purified material from conditioned media of CHO-K1 cells that had been transfected to express soluble, truncated BACE enzyme (BACE1deltaTM96His). Compounds were incubated in a ½ log dose response (from a top concentration of 100 μM) with BACE1 enzyme (0.1 nM final) and the biotinylated fluorescent peptide substrate (150 nM final) in assay buffer containing 100 mM sodium acetate, pH 4.5 (brought to pH with acetic acid), and 0.001% Tween-20. Total reaction volumes of 30 μL were carried out in 384-well black plates (Thermo Scientific 4318). Plates were covered and incubated for 3 hours at 37° C. The reactions were then stopped by addition of 30 μL of 1.5 μM Streptavidin (Pierce, 21125). After a 10 minute incubation at room temperature, plates were read on a PerkinElmer Envision for fluorescence polarization (Ex485 nm/Em530 nm). The activity of the beta-secretase enzyme is detected by changes in the fluorescence polarization (Δ mP) that occur when the substrate is cleaved by the enzyme.

[1] = 8-point curve, read-out: BACE activity, 8-point curve, IC50
[2] = 11-point curve, read-out: BACE activity, 11-point curve, IC50

T1 sequence (P56817 46-457): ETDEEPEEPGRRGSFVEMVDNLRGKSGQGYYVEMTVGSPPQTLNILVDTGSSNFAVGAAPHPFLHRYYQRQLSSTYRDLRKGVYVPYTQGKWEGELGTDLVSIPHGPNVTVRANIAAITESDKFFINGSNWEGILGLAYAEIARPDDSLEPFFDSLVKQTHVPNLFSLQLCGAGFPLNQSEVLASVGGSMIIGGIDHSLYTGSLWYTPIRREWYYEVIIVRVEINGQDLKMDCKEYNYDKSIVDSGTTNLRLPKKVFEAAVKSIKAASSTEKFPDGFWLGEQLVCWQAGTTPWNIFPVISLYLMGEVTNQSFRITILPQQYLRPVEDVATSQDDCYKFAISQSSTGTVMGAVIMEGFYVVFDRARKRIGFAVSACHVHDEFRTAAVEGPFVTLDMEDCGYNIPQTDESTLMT

SMILES | IC50 [1] [nM] | IC50 [2] [nM]
Cc1ccsc1-c1ocnc1CN1CC[C@]2(CCS(=O)(=O)N2c2cccc(F)c2)C[C@@H]1C [Example 58, (5R,7S)-1-(3-fluorophenyl)-7-methyl-8-{[5-(3-methyl-2-thienyl)-1,3-oxazol-4-yl]methyl}-2-thia-1,8-diazaspiro[4.5]decane 2,2-dioxide, hydrochloride salt] |  | 6530
CCc1ccccc1-c1cc(CN2CC[C@]3(CCS(=O)(=O)N3c3cccc(F)c3)C[C@@H]2C)ccc1O [Example 8, 2′-ethyl-5-{[(5R,7S)-1-(3-fluorophenyl)-7-methyl-2,2-dioxido-2-thia-1,8-diazaspiro[4.5]dec-8-yl]methyl}biphenyl-2-ol] | 124 | 
C[C@H]1C[C@@]2(C=CS(=O)(=O)N2c2cccc(F)c2)CCN1Cc1ccc(O)c(C(F)(F)F)c1 [Example 16, 4-{[(5R,7S)-1-(3-fluorophenyl)-7-methyl-2,2-dioxido-2-thia-1,8-diazaspiro[4.5]dec-3-en-8-yl]methyl}-2-(trifluoromethyl)phenol, hydrochloride salt] | 322 | 
Cc1scnc1-c1cc(CN2CC[C@]3(CCS(=O)(=O)N3c3cnccn3)C[C@@H]2C)ccc1O [Example 89, 4-{[(5R,7S)-7-methyl-2,2-dioxido-1-(pyrazin-2-yl)-2-thia-1,8-diazaspiro[4.5]dec-8-yl]methyl}-2-(5-methyl-1,3-thiazol-4-yl)phenol] | 64.9 | 1230
C[C@H]1C[C@@]2(C=CS(=O)(=O)N2c2cccc(F)c2)CCN1Cc1scnc1-c1cncnc1 [Example 43, (5R,7S)-1-(3-fluorophenyl)-7-methyl-8-[(4-pyrimidin-5-yl-1,3-thiazol-5-yl)methyl]-2-thia-1,8-diazaspiro[4.5]dec-3-ene 2,2-dioxide] | 975 | 8250
C[C@H]1C[C@]2(CCN1Cc1ccc(O)c(C3CCC3)c1)CCS(=O)(=O)N2c1ccccn1 [Example 92, 2-cyclobutyl-4-{[(5R,7S)-7-methyl-2,2-dioxido-1-(pyridin-2-yl)-2-thia-1,8-diazaspiro[4.5]dec-8-yl]methyl}phenol] |  | 4190
Cc1scnc1-c1cc(CN2CC[C@]3(C=CS(=O)(=O)N3c3cccc(F)c3)C[C@@H]2C)ccc1O [Example 73, 4-{[(5R,7S)-1-(3-fluorophenyl)-7-methyl-2,2-dioxido-2-thia-1,8-diazaspiro[4.5]dec-3-en-8-yl]methyl}-2-(5-methyl-1,3-thiazol-4-yl)phenol, ammonium sail] | 2.44 | 44.5

Next, values leading:

IC50 [1] [nM] | IC50 [2] [nM] | SMILES
13.8 | 115 | Cc1cccnc1-c1cc(CN2CC[C@]3(C=CS(=O)(=O)N3c3cccc(F)c3)C[C@@H]2C)ccc1O [Example 74, 4-{[(5R,7S)-1-(3-fluorophenyl)-7-methyl-2,2-dioxido-2-thia-1,8-diazaspiro[4.5]dec-3-en-8-yl]methyl}-2-(3-methylpyridin-2-yl)phenol]
0.97 | 24.3 | Cc1csnc1-c1cc(CN2CC[C@]3(C=CS(=O)(=O)N3c3cccc(F)c3)C[C@@H]2C)ccc1O [Example 72, 4-{[(5R,7S)-1-(3-fluorophenyl)-7-methyl-2,2-dioxido-2-thia-1,8-diazaspiro[4.5]dec-3-en-8-yl]methyl}-2-(4-methyl-1,2-thiazol-3-yl)phenol, trifluoroacetic acid salt]
 | 5720 | CC(C)Oc1cccc(CN2CC[C@@]3(C[C@@H]2C)C(=O)CS(=O)(=O)N3c2cccc(F)c2)c1 [Example 81, (5R,7S)-1-(3-fluorophenyl)-8-(3-isopropoxybenzyl)-7-methyl-2-thia-1,8-diazaspiro[4.5]decan-4-one 2,2-dioxide]
 | 240 | Cc1scnc1-c1cc(CN2CC[C@@]3(C[C@@H]2C)C(=O)CS(=O)(=O)N3c2cccc(F)c2)ccc1O [Example 83, (5R,7S)-1-(3-fluorophenyl)-8-[4-hydroxy-3-(5-methyl-1,3-thiazol-4-yl)benzyl]-7-methyl-2-thia-1,8-diazaspiro[4.5]decan-4-one 2,2-dioxide]
